Reference: patent US20120046224A1, “TREATMENT OF DIABETES AND METABOLIC SYNDROME” (NORDIC BIOSCIENCE A/S, priority 2009, published 2012)
No end group written: not given here.

What was measured:
[1] = healthy test persons, infusion; cited from earlier work
[2] = Paget's disease of the bone patients, injection; cited from earlier work
[3] = Body weight and whole body composition (MR scanning) in DIO rats; type: in vivo, rat; details: for increase in fat content (MR analysis): CT 2 mg/kg/day with 5-CNAC; for change in body weight: once daily oral, Calcitonin 2 mg/kg/day with 5-CNAC 150 mg/kg/day, or 5-CNAC 150 mg/kg/day alone
Procedure: (§1) A total of 48 selectively bred male DIO rats were used. At the beginning of the experiment, the animals had reached an age of 35 weeks, out of which 31 weeks were on high-fat diet.
(§2) At day −7, 21 and 42 fasted serum and urine samples were collected and whole body tissue composition was evaluated by MR scanning. At day 42, an oral glucose tolerance test (OGTT) was performed to evaluate glucose homeostasis in the rats. At day −1 the animals were stratified according to weight and whole body fat mass (assessed by a 4-in-1 EchoMRI scanner) to the different treatment groups. The groups were randomized in three teams by body weight.
First day of dosing was day 0. Animals were dosed per oral 5 ml/kg. The compound solution was administered once daily at 7:00 AM-2:00 PM during the whole study (0-42 days) per oral gavage using a gastric tube connected to a 5 ml syringe (luer lock™. Becton).
To assess the distribution of the gained weight during the treatment program the animals were subjected to MR analysis after termination. Two parameters were investigated: 1) change in fatty mass and, 2) change in total water content.

DIO rats = test: Oral glucose tolerance test (OGTT) in DIO rats; type: in vivo, rat; details: for plasma insulin response during OGTT: peak 15 minutes after glucose, CT compared to 5-CNAC group; for maximum / peak blood glucose level during OGTT: reached 15 minutes after OGTT (CT), at 60 minutes (5-CNAC)
Procedure: as §1, §2
First day of dosing was day 0. Animals were dosed per oral 5 ml/kg.
In order to test the glucose handling in different treatment groups, an oral glucose tolerance test (OGTT) was performed.

Sprague Dawley rats = test: OGTT in healthy lean Sprague Dawley rats; type: in vivo, rat
Procedure: The rats were treated bi daily for 5 weeks using the same dose as in the DIO rats.

[4] = Weight gain in normal Sprague-Dawley rats; type: in vivo, rat; details: twice daily oral, salmon calcitonin 2 mg/kg/day with 5-CNAC 150 mg/kg/day, 8 weeks, vs control group
Procedure: (§3) A total of 40 rats were divided into 4 groups, two bilateral ovariectomy (OVX) groups and two normal groups.
(§4) The first day of dosing was day 0. Animals were dosed per oral 5 ml/kg. The compound solution was administered twice daily, the first dose at 7:00 AM and the second dose 8 hours later (between 3 and 4 PM) during the whole study. The dosing was done by oral gavage using a gastric tube connected to a 5 ml syringe. Feeding was ad libitum.

[5] = Ovariectomy (OVX)-induced weight gain in Sprague-Dawley rats; type: in vivo, rat
Procedure: as §3, §4
A total of 20 rats were bilaterally ovariectomized (OVX). The animals were treated once daily with either 5-CNAC 150 mg/kg/day alone or that amount of 5-CNAC in combination with Calcitonin 2 mg/kg/day for 8 weeks during which the weight was monitored once a week. Feeding was again ad libitum.
The first day of dosing was day 0. Animals were dosed per oral 5 ml/kg. The compound solution was administered once daily between 7:00 and 8:00 AM during the whole study per oral gavage using a gastric tube connected to a 5 ml syringe.

CTX-II = test: Serum CTX-II after oral dosing in fasted rats; type: in vivo, rat; details: sCT 2 mg/kg, carrier 150 mg/kg
Procedure: Fasted rats were treated with oral doses of carrier alone (5-CNAC or SNAC), sCT alone or sCT in combination with carrier (5-CNAC or SNAC). Blood sampling was conducted at baseline, one, three and six hours after oral dosing, and serum was isolated. Concentrations of CTX-II were subsequently measured in the serum samples.
Rats were randomized according to weight into five groups and fasted over night. […] Blood samples were taken from tail vein at baseline, one, three and six hours after oral dosing. Serum was isolated from the blood samples and CTX-II concentrations were measured in undiluted serum samples. […] Each group contained 6 animals. Statistical analyses were conducted with one-way ANOVA and Bonferroni's Multiple Comparison Test to adjust for multiple tests. Error bars indicate standard error of mean (SEM). Asterisks indicate: **=p<0.01, ***=p<0.001.

[6] = rabbits, injection, 600 MRC U per month or 50 MRC U single dose; cited from earlier work
[7] = rats, intracerebroventricular administration; cited from earlier work
rat hepatocytes = details: cited from earlier work
[8] = cited from earlier work; for fasting plasma glucose: rats and mice, intravenous bolus injection
[9] = cited from earlier work; for glucose levels: fasting animals, parenterally administered
[10] = rats or mice, cited from earlier work
[11] = rhesus monkeys, parenteral, 5 day administration period; cited from earlier work
[12] = healthy volunteers, intramuscular; cited from earlier work
[13] = latent diabetes in humans, infusion; cited from earlier work
[14] = insulin dependent diabetic patients, intravenous infusion; cited from earlier work
[15] = intra-muscular, cited from earlier work
[16] = cited from earlier work
[17] = 100 MRC units per day, 2 months, cited from earlier work
[18] = i.m. 100 MRC units twice daily, 15 days; cited from earlier work
[19] = 62.26 pmol/kg, patients with a duodenal ulcer; cited from earlier work
[20] = rats fed a high fat diet, delivered by osmotic pump; cited from earlier work
[21] = cited from earlier work; remark: listed apart in the source
[22] = 100 U by i.v. infusion; cited from earlier work

human calcitonin (CGNLSTCMLGTYTQDFNKFHTFPQTAIGVGAP; ends and bridges not checked; cysteine pairing not given here; listed as Homo sapiens)
glucose assimilation and insulin output [1]: significant impairment of glucose assimilation and insulin output | serum glucose and serum insulin [2]: a moderate immediate rise in serum glucose and a slight decrease in serum insulin

Salmon calcitonin [CT]
increase in fat content (MR analysis) ([3]; compared to 5-CNAC and vehicle groups): a significant increase compared to the 5-CNAC and vehicle groups | increase in fat content (MR analysis) ([3]; compared to rosiglitazone group, p<0.0001): significantly lower increase in the fat content compared to rosiglitazone group | change in body weight [3]: Neither the CT treated group nor the 5-CNAC group display any change in their body weight | AUC of change in insulin levels during OGTT (DIO rats): lowest change in insulin levels | AUC of net change in plasma glucose (glucose clearance during OGTT) (DIO rats): significantly increased glucose clearance during the OGTT | effect on AUC of change in glucose (DIO rats; CT compared to Rosiglitazone groups): markedly larger than the changes seen in the Rosiglitazone groups | peak glucose levels during OGTT (DIO rats; CT treated compared to 5CNAC group): strongly reduced peak glucose levels | basal insulin level to which insulin returns after the peak (DIO rats; OGTT): 4.53 µg/L | plasma insulin response during OGTT (DIO rats): attenuated insulin response | maximum / peak blood glucose level during OGTT (DIO rats): 8.2 mM | AUC of change in glucose during OGTT (Sprague Dawley rats): potently reduces glucose levels | increase of insulin level in response to OGTT (Sprague Dawley rats): approximately 0.5 μg/L | time until insulin level returned to basal (Sprague Dawley rats; OGTT): 60 min | AUC of change in insulin levels during OGTT (Sprague Dawley rats; between groups, p=0.08): the AUC of change is significant between the groups | basal glucose levels (Sprague Dawley rats; treated bi daily for 5 weeks, same dose as in DIO rats): lowered basal glucose levels | peak glucose level during OGTT (Sprague Dawley rats; vs vehicle (5-CNAC) group): prevented this drastic peak | natural weight gain [4]: reduction of the natural weight gain | OVX-induced weight gain ([5]; once daily oral, 8 weeks): does not protect against OVX-induced weight gain | OVX-induced increase in bodyweight ([5]; twice daily oral, 7 weeks): protected partially against the OVX-induced increase in bodyweight | serum CTX-II concentration (CTX-II; one hour after oral dosing, vs carrier alone): significantly lowered the CTX-II concentration | serum CTX-II concentration (CTX-II; three and six hours after oral dosing): return to the baseline level | glucose level measured after fasting [6]: marked decrease in glucose level | glucose stimulated release of insulin [7]: increased glucose stimulated release of insulin | effect on rat hepatocytes and other cells (rat hepatocytes): little effect | fasting plasma glucose [8]: elevation of fasting plasma glucose | glucose levels [9]: a rise in glucose levels | short term food intake ([10]; acute parenteral administration): potently induced reduction in short term food intake | duration of the effect on food intake ([10]; parenteral): 3 days | food intake [11]: reduce food intake in rhesus monkeys throughout a 5 day administration period | blood glucose during a morning fast and glucose tolerance test [12]: inhibited decrease of blood glucose during a morning fast and impaired a glucose tolerance test | serum level of insulin and blood sugar [13]: reducing the serum level of insulin and increasing the blood sugar | glucose rise in arginine tolerance test [14]: abolished the glucose rise normally seen in an arginine tolerance test | serum glucose and serum insulin [2]: a moderate immediate rise in serum glucose and a slight decrease in serum insulin | integrated glucose areas under plasma glucose curves ([15]; humans): approximately doubling | response to a glucose tolerance test ([15]; normal humans): a deterioration in response to a glucose tolerance test | glucose level and glucagon ([16]; insulin dependent diabetics): a fall in glucose level along with the fall in glucagon | circulating glucagon and serum insulin ([16]; normal human volunteers, infused): a fall in circulating glucagon levels and a fall in serum insulin | glucose tolerance ([17]; Paget's disease or osteoporosis patients): Glucose tolerance did not deteriorate significantly | basal plasma glucose [17]: significant increase in basal plasma glucose | carbohydrate metabolism after a mixed meal stimulus [18]: not seen to cause appreciable change in carbohydrate metabolism | post-prandial insulin release [19]: post-prandial insulin release was abolished

amylin (KCNTATCATQRLANFLVHSSNNFGAILSSTNVGSNTY; not fully specified (C-terminus, bridges); cysteine pairing not given here; UniProt P10997 34-70, looked up) [calcitonin family peptide hormone, literature results]
weight gain [20]: caused a reduction in weight gain | effect on rat hepatocytes and other cells (rat hepatocytes): little effect | glucose levels [9]: a rise in glucose levels | rise in glucose in oral glucose tolerance test ([9]; rats, parenterally administered shortly before the test): reduced the rise in glucose | plasma glucose ([21]; in the absence of a meal): associated with a rise in plasma glucose in rodents, but not in humans | rise in plasma glucose ([21]; in the context of a meal, rats, dogs and humans): suppressed a rise in plasma glucose

rat calcitonin (CGNLSTCMLGTYTQDLNKFHTFPQTSIGVGAP; ends and bridges not checked; cysteine pairing not given here)
effect on rat hepatocytes and other cells (rat hepatocytes): little effect | fasting plasma glucose [8]: a lesser effect

O=C(O)CCCCCCCNC(=O)c1cc(Cl)ccc1O [5-CNAC, N-(5-chlorosalicyloyl)-8-aminocaprylic acid]
change in body weight [3]: Neither the CT treated group nor the 5-CNAC group display any change in their body weight | plasma insulin response during OGTT (DIO rats): the levels stay in the hyperinsulinaemic state throughout the OGTT | maximum / peak blood glucose level during OGTT (DIO rats): 9.8 mM

calcitonin
glycemic recovery ([8]; hypoglycaemic rat, compared to glucagon): a greater glycemic recovery than glucagon | glycaemia in the course of an OGTT [22]: a persistence of hyperglycaemia | insulin secretion [22]: An inhibitory action of calcitonin on insulin secretion was also observed
